Data published in ChEMBL document CHEMBL3774317, “Design and synthesis of novel tamoxifen analogues that avoid CYP2D6 metabolism” (Eur J Med Chem, 2016).

Legend:
Format in all cases: functional
K562 [1] = assay: Cytotoxicity against human K562 cells assessed as cell growth at 10^-4 M after 48 hrs by SRB assay; conditions: K562, 48 h, read-out: Activity
M14 = assay: Cytotoxicity against human M14 cells assessed as cell growth at 10^-5 M after 48 hrs by SRB assay; conditions: M14, 48 h, read-out: Activity
[2] = Cytotoxicity against human IGROV1 cells assessed as cell growth at 10^-7 M after 48 hrs by SRB assay; conditions: IGROV-1, 48 h, read-out: Activity
SR = assay: Cytotoxicity against human SR cells assessed as cell growth at 10^-8 M after 48 hrs by SRB assay; conditions: read-out: Activity
[3] = Cytotoxicity against human Hs 578T cells assessed as cell growth at 10^-8 M after 48 hrs by SRB assay; conditions: read-out: Activity
KM12 = assay: Cytotoxicity against human KM12 cells assessed as cell growth at 10^-7 M after 48 hrs by SRB assay; conditions: KM12, 48 h, read-out: Activity
[4] = Cytotoxicity against human DU145 cells assessed as cell growth at 10^-6 M after 48 hrs by SRB assay; conditions: DU-145, 48 h, read-out: Activity
[5] = Cytotoxicity against human UO31 cells assessed as cell growth at 10^-8 M after 48 hrs by SRB assay; conditions: UO-31, 48 h, read-out: Activity
786-0 = assay: Cytotoxicity against human 786-0 cells assessed as cell growth at 10^-8 M after 48 hrs by SRB assay; conditions: 786-0, 48 h, read-out: Activity
MDA-MB-468 = assay: Cytotoxicity against human MDA-MB-468 cells assessed as cell growth at 10^-4 M after 48 hrs by SRB assay; conditions: MDA-MB-468, 48 h, read-out: Activity
[6] = Cytotoxicity against human TK10 cells assessed as cell growth at 10^-5 M after 48 hrs by SRB assay; conditions: TK-10, 48 h, read-out: Activity
A498 = assay: Cytotoxicity against human A498 cells assessed as cell growth at 10^-6 M after 48 hrs by SRB assay; conditions: A498, 48 h, read-out: Activity
[7] = Cytotoxicity against human SW620 cells assessed as cell growth at 10^-8 M after 48 hrs by SRB assay; conditions: SW-620, 48 h, read-out: Activity
[8] = Cytotoxicity against human SNB19 cells assessed as cell growth at 10^-4 M after 48 hrs by SRB assay; conditions: SNB-19, 48 h, read-out: Activity
[9] = Cytotoxicity against human RPMI8226 cells assessed as cell growth at 10^-7 M after 48 hrs by SRB assay; conditions: RPMI-8226, 48 h, read-out: Activity
[10] = Cytotoxicity against human OVCAR3 cells assessed as cell growth at 10^-4 M after 48 hrs by SRB assay; conditions: OVCAR-3, 48 h, read-out: Activity
NCI-H322M = assay: Cytotoxicity against human NCI-H322M cells assessed as cell growth at 10^-7 M after 48 hrs by SRB assay; conditions: read-out: Activity
[11] = Cytotoxicity against human HCT15 cells assessed as cell growth at 10^-5 M after 48 hrs by SRB assay; conditions: HCT-15, 48 h, read-out: Activity
[12] = Cytotoxicity against human Caki1 cells assessed as cell growth at 10^-4 M after 48 hrs by SRB assay; conditions: CAKI-1, 48 h, read-out: Activity
[13] = Cytotoxicity against human HOP62 cells assessed as cell growth at 10^-8 M after 48 hrs by SRB assay; conditions: HOP-62, 48 h, read-out: Activity
[14] = Cytotoxicity against human OVCAR5 cells assessed as cell growth at 5 nM after 48 hrs by SRB assay; conditions: OVCAR-5, 48 h, read-out: Activity
NCI-H226 = assay: Cytotoxicity against human NCI-H226 cells assessed as cell growth at 50 nM after 48 hrs by SRB assay; conditions: NCI-H226, 48 h, read-out: Activity
[15] = Cytotoxicity against human IGROV1 cells assessed as cell growth at 50 uM after 48 hrs by SRB assay; conditions: IGROV-1, 48 h, read-out: Activity
SK-MEL-5 [16] = assay: Cytotoxicity against human SK-MEL-5 cells assessed as cell growth at 5 nM after 48 hrs by SRB assay; conditions: SK-MEL-5, 48 h, read-out: Activity
HT-29 = assay: Cytotoxicity against human HT-29 cells assessed as cell growth at 50 nM after 48 hrs by SRB assay; conditions: HT-29, 48 h, read-out: Activity
SK-MEL-28 = assay: Cytotoxicity against human SK-MEL-28 cells assessed as cell growth at 5 uM after 48 hrs by SRB assay; conditions: SK-MEL-28, 48 h, read-out: Activity
[17] = Cytotoxicity against human SNB19 cells assessed as cell growth at 50 uM after 48 hrs by SRB assay; conditions: SNB-19, 48 h, read-out: Activity
K562 [18] = assay: Cytotoxicity against human K562 cells assessed as cell growth at 0.5 uM after 48 hrs by SRB assay; conditions: K562, 48 h, read-out: Activity
NCI-H460 [19] = assay: Cytotoxicity against human NCI-H460 cells assessed as cell growth at 50 uM after 48 hrs by SRB assay; conditions: NCI-H460, 48 h, read-out: Activity
[20] = Cytotoxicity against human HCT116 cells assessed as cell growth at 5 uM after 48 hrs by SRB assay; conditions: HCT-116, 48 h, read-out: Activity
[21] = Cytotoxicity against human DU145 cells assessed as cell growth at 50 nM after 48 hrs by SRB assay; conditions: DU-145, 48 h, read-out: Activity
Malme-3M = assay: Cytotoxicity against human MALME-3M cells assessed as cell growth at 0.5 uM after 48 hrs by SRB assay; conditions: read-out: Activity
A549 = assay: Cytotoxicity against human A549 cells assessed as cell growth at 50 uM after 48 hrs by SRB assay; conditions: A549, 48 h, read-out: Activity
NCI-H460 [22] = assay: Cytotoxicity against human NCI-H460 cells assessed as cell growth at 50 nM after 48 hrs by SRB assay; conditions: NCI-H460, 48 h, read-out: Activity
[23] = Cytotoxicity against human HCT116 cells assessed as cell growth at 50 uM after 48 hrs by SRB assay; conditions: HCT-116, 48 h, read-out: Activity
[24] = Cytotoxicity against human UACC257 cells assessed as cell growth at 0.5 uM after 48 hrs by SRB assay; conditions: UACC-257, 48 h, read-out: Activity
[25] = Cytotoxicity against human HOP92 cells assessed as cell growth at 5 uM after 48 hrs by SRB assay; conditions: HOP-92, 48 h, read-out: Activity
[26] = Cytotoxicity against human HOP92 cells assessed as cell growth at 0.5 uM after 48 hrs by SRB assay; conditions: HOP-92, 48 h, read-out: Activity
[27] = Cytotoxicity against human COLO205 cells assessed as cell growth at 50 uM after 48 hrs by SRB assay; conditions: COLO 205, 48 h, read-out: Activity
SK-MEL-5 [28] = assay: Cytotoxicity against human SK-MEL-5 cells assessed as cell growth at 0.5 uM after 48 hrs by SRB assay; conditions: SK-MEL-5, 48 h, read-out: Activity
[29] = Cytotoxicity against human SF295 cells assessed as cell growth at 0.5 uM after 48 hrs by SRB assay; conditions: SF-295, 48 h, read-out: Activity

With `C/C(=C(/c1ccc(O)cc1)c1ccc(OCCN2CCCC2)cc1)c1ccccc1` the growth at 100 µM (K562 [1]) was -70%, the growth at 10 µM (M14) was -58% and the growth at 0.1 µM [2] was 101%. For the same molecule, the growth at 0.01 µM (SR) was 96%, the growth at 0.01 µM [3] was 100% and the growth at 0.1 µM (KM12) was 100%. It also gave a growth at 1 µM [4] of 94%, a growth at 0.01 µM [5] of 93% and a growth at 0.01 µM (786-0) of 97%. It also gave a growth at 100 µM (MDA-MB-468) of -87%, a growth at 10 µM [6] of 27% and a growth at 1 µM (A498) of 66%. The growth at 0.01 µM [7] was 102%, the growth at 100 µM [8] was -74% and the growth at 0.1 µM [9] was 103%. For the same molecule, the growth at 100 µM [10] was -100%, the growth at 0.1 µM (NCI-H322M) was 95% and the growth at 10 µM [11] was -41%. For the same molecule, the growth at 100 µM [12] was -100% and the growth at 0.01 µM [13] was 90%.
For `CCCCCCCCCC(=O)Oc1ccc(/C(=C(/C)c2ccccc2)c2ccc(OCCN3CCCC3)cc2)cc1`, the growth at 0.005 µM [14] was 99%, the growth at 0.05 µM (NCI-H226) was 94% and the growth at 50 µM [15] was -58%. It also gave a growth at 0.005 µM (SK-MEL-5 [16]) of 100%, a growth at 0.05 µM (HT-29) of 98% and a growth at 5 µM (SK-MEL-28) of 89%. It also gave a growth at 50 µM [17] of -77%, a growth at 0.5 µM (K562 [18]) of 34% and a growth at 50 µM (NCI-H460 [19]) of -91%. For the same molecule, the growth at 5 µM [20] was 85%, the growth at 0.05 µM [21] was 98% and the growth at 0.5 µM (Malme-3M) was 61%. For the same molecule, the growth at 50 µM (A549) was -82%, the growth at 0.05 µM (NCI-H460 [22]) was 102% and the growth at 50 µM [23] was -87%. For the same molecule, the growth at 0.5 µM [24] was 76%, the growth at 5 µM [25] was 72% and the growth at 0.5 µM [26] was 64%. For the same molecule, the growth at 50 µM [27] was -89%, the growth at 0.5 µM (SK-MEL-5 [28]) was 62% and the growth at 0.5 µM [29] was 79%.
